Like-named read-outs stand apart in the source and are kept apart here. Residues, ends and D or L forms follow the SMILES beside them.
What was measured:
[1] = HPTS/DPX transport assay in zwitterionic EYPC vesicles; type: in vitro ADME; design: key to Et: Et = Ymax × (pEC50/ft); pEC50 = −log EC50; settings: for Et transport efficiency: Et = Ymax × (pEC50/ft), ft = 19.8 so that WR7 equals 10.0, B12Br12^2− (40 μM) carrier, 5% error (SD) unless stated; for Ymax (%) maximal activity, transport of cargo / EC50: cargo concentration varied, B12Br12^2− (40 μM) as common carrier, EYPC⊃HPTS/DPX vesicles, pH 7.4, Hill analysis, 10% error (SD) unless stated, n.t. = no detectable transport; for Ymax (%) maximal activity, transport of cargo: 13 µM lipid, 10 mM Tris, 107 mM NaCl, HPTS fluorescence; for EC50: read-out: EC50 (μM) effective cargo concentration to reach 50% of Ymax
Description: The well-established HPTS/DPX assay, which uses 8-hydroxypyrene-1,3,6-trisulfonate (HPTS) and p-xylene-bis-pyridinium (DPX), was implemented to monitor peptide-transport activation (Fig. 2a). […] A surfactant (Triton X-100) was added at the end of the experiment (t = 600 s) to release all vesicle content and normalize the fluorescence intensity data.
Fig. 2 Carrier activity obtained from the HPTS/DPX assay. a, Schematic representation of the transport of otherwise impermeable analytes facilitated by superchaotropic cluster anions with encapsulated HPTS/DPX probe/quencher pair used for signalling. […] Concentrations of carrier and cargo, when fixed, were 40 and 20 µM, respectively, unless explicitly stated. Source data
A thin lipid film was prepared by evaporating a lipid solution with a stream of nitrogen and then dried in vacuo overnight.
Fluorescence intensities were normalized to fractional emission as I(t) = (It − I0)/(I∞ − I0), where I0 = It before cluster addition and I∞ = It after lysis.
In the activator measurements, in which different activators were tested with the same cargo, the activator efficiency (Ea) is determined from their ability to activate the transport of an impermeable cargo molecule and is characterized by Ymax, its maximal activity, and EC50, the effective activator concentration. A potent activator reaches high Ymax at low EC50. To reflect both factors, the activator efficiency is defined as Ea = Ymax × (pEC50/fa), where pEC50 is the negative logarithm of EC50.
In the transport measurements, in which different types of cargo were tested with the same activator, the transport efficiency (Et) reports on the sensitivity of the cargo for being transported and is described by Ymax, the maximal activity, and EC50, the effective cargo concentration. An easily accessible cargo reaches high Ymax at low EC50. The transport efficiency is defined as a composition of both parameters according to Et = Ymax × (pEC50/ft), where pEC50 is the negative logarithm of EC50.
Extended Data Fig. 3 Transport activity. a, Transport activity, Y, in EYPC⊃HPTS/DPX vesicles as a function of cluster concentration at constant cargo concentration (WR7, 20 µM). b, Transport activity, Y, for B12Br12^2− (40 µM) in EYPC⊃HPTS/DPX vesicles as a function of the concentration of different cargo types; red lines correspond to the resulting fit with the Hill equation. Source data

HeLa cells = test: MTT viability with MMAF in absence or presence of B12Br12^2−; type: cell-based; settings: for mean_viability: cluster 0, mean of three technical replicates; for IC50: MMAF
Description: The incubation mixtures were replaced with DMEM + 10% FBS + 0.5 mg ml^–1 MTT. For the viability assays in the presence of B12Br12^2− or R8, HeLa, GT1-7, ARPE-19 and A549 cells were seeded the day before in 96-well plates at 6,000 cells per well. Cells were incubated with B12Br12^2− or R8 dissolved in HKR buffer for 3 h and, thereafter, incubated for 24 h with complete medium before incubating with complete medium and 0.5 mg ml^−1 MTT. For viability studies in the presence of MMAF, HeLa cells were incubated with MMAF and B12Br12^2− diluted in DMEM (without serum or antibiotics) for 3 h. Cells were washed with 0.1 mg ml^−1 heparin and further incubated for 21 h in complete medium and 2 h in complete medium containing 0.5 mg ml^−1 MTT. For all types of assays, after 2 h of incubation, the medium was carefully removed, and formazan crystals dissolved by addition of DMSO. The absorbance at 570 nm was measured with a plate reader (Tecan Infinite F200Pro) and the data normalized to the value of untreated cells (100% viability). Data were analysed with R (v. 4.0.3)[54].
Solid points indicate mean ± s.d. of three technical replicates. […] Cross-bars indicate mean ± s.d. of three independent experiments (two with technical triplicates, one with technical duplicates); values obtained in each experiment are represented by different shapes. c, Viability […] Solid points indicate mean ± s.d. of three technical replicates. d, Corresponding IC50 values of MMAF. Cross-bars indicate mean ± s.d. of four independent experiments, each with technical triplicates; each experiment is represented by a different shape. e, E. coli Top10 viability in the presence of different concentrations of kanamycin A monosulphate (0–3.5 μg/mL) and B12Br12^2− (0–1,000 μM) in LB broth at 37 °C; data are mean ± s.d. of triplicate measurements. Source data

Compound: CC(=O)OCC[N+](C)(C)C [Acetylcholine, acetylcholine]
- Et transport efficiency [1]: 7.0
- Et ([1]; Fig.2 d, per analyte (cargo)): 7
- Ymax (%) maximal activity, transport of cargo [1]: 75%
- EC50 [1]: 13.8 µM

Compound: CC1(C)S[C@@H]2[C@H](NC(=O)[C@H](N)c3ccccc3)C(=O)N2[C@H]1C(=O)O [Ampicillin, ampicillin, reference compound]
- Et [1]: 4.5
- Et transport efficiency [1]: 4.5
- Ymax (%) maximal activity, transport of cargo [1]: 74%
- EC50 [1]: 63 µM

Compound: CC[C@H](C)[C@@H]([C@@H](CC(=O)N1CCC[C@H]1[C@H](OC)[C@@H](C)C(=O)N[C@@H](Cc1ccccc1)C(=O)O)OC)N(C)C(=O)[C@@H](NC(=O)[C@@H](NC)C(C)C)C(C)C [MMAF, monomethyl auristatin F] (HELM PEPTIDE1{[meV].V.[CC[C@H](C)[C@@H]([C@@H](CC(=O)[*:2])OC)N(C)[*:1]].[CO[C@H]([C@@H](C)C(=O)[*:2])[C@@H]1CCCN1[*:1]].F}$$$$V2.0)
- mean_viability (HeLa cells; MMAF 39.0625 nM): 103.936
- percent_viability (HeLa cells; MMAF 39.0625 nM, cluster 0, technical replicate 1): 103.03
- percent_viability (HeLa cells; MMAF 39.0625 nM, cluster 0, technical replicate 2): 107.013
- percent_viability (HeLa cells; MMAF 39.0625 nM, cluster 0, technical replicate 3): 101.765
- mean_viability (HeLa cells; MMAF 78.125 nM): 83.7598
- percent_viability (HeLa cells; MMAF 78.125 nM, cluster 0, technical replicate 1): 94.8234
- IC50 (HeLa cells; cluster 0, 3 h in DMEM + 21 h medium, experiment_2, read-out: IC50): 1210 nM
- IC50 (HeLa cells; cluster 0, 3 h in DMEM + 21 h medium, experiment_3, read-out: IC50): 1290 nM
- IC50 (HeLa cells; cluster 0, 3 h in DMEM + 21 h medium, experiment_4, read-out: IC50): 1410 nM
- IC50 (HeLa cells; cluster 0, 3 h in DMEM + 21 h medium, mean of four independent experiments, read-out: mean_IC50): 1210 nM
- IC50 (HeLa cells; cluster 5 µM as printed, 3 h in DMEM + 21 h medium, experiment_1, read-out: IC50): 512 nM
- IC50 (HeLa cells; cluster 5 µM as printed, 3 h in DMEM + 21 h medium, experiment_2, read-out: IC50): 709 nM
- IC50 (HeLa cells; cluster 5 µM as printed, 3 h in DMEM + 21 h medium, experiment_3, read-out: IC50): 905 nM
- IC50 (HeLa cells; cluster 5 µM as printed, 3 h in DMEM + 21 h medium, experiment_4, read-out: IC50): 870 nM
- IC50 (HeLa cells; cluster 10 µM as printed, 3 h in DMEM + 21 h medium, experiment_1, read-out: IC50): 467 nM
- IC50 (HeLa cells; cluster 10 µM as printed, 3 h in DMEM + 21 h medium, experiment_2, read-out: IC50): 568 nM
- IC50 (HeLa cells; cluster 10 µM as printed, 3 h in DMEM + 21 h medium, experiment_3, read-out: IC50): 660 nM
- IC50 (HeLa cells; cluster 10 µM as printed, 3 h in DMEM + 21 h medium, experiment_4, read-out: IC50): 583 nM
- IC50 (HeLa cells; cluster (B12Br12^2−) 5 mM as printed, 3 h in DMEM + 21 h medium, mean of four independent experiments, read-out: mean_IC50): 749 nM
- IC50 (HeLa cells; cluster (B12Br12^2−) 10 mM as printed, 3 h in DMEM + 21 h medium, mean of four independent experiments, read-out: mean_IC50): 569 nM

Compound: N[C@@H](Cc1ccccc1)C(=O)O [Phenylalanine]
- Et transport efficiency [1]: 0.5 ± 0.2
- Et ([1]; Fig.2 d, per analyte (cargo)): 0.5
- Ymax (%) maximal activity, transport of cargo [1]: 10 ± 4%
- EC50 [1]: 109 µM

Compound: CNC(=C[N+](=O)[O-])NCCSCc1ccc(CN(C)C)o1 [Ranitidine, reference compound]
- Et transport efficiency [1]: 3.9
- Et ([1]; Fig.2 d, per analyte (cargo)): 3.9
- Ymax (%) maximal activity, transport of cargo [1]: 70%
- EC50 [1]: 75.9 µM

Compound: N[C@@H](Cc1c[nH]c2ccccc12)C(=O)O [Tryptophan]
- Et [1]: 9.6
- Et transport efficiency [1]: 9.6
- Ymax (%) maximal activity, transport of cargo [1]: 72%
- EC50 [1]: 2.4 µM

Compound: CC(=O)O[C@H]1C[C@@H]2CC[C@@H]3[C@H](CC[C@@]4(C)[C@H]3C[C@H]([N+]3(C)CCCCC3)[C@@H]4OC(C)=O)[C@@]2(C)C[C@@H]1N1CCCCC1 [Vecuronium, reference compound]
- Et [1]: 3.5
- Et transport efficiency [1]: 3.5
- Ymax (%) maximal activity, transport of cargo [1]: 64%
- EC50 [1]: 50.6 µM

Compound: Cc1ncc(C[n+]2csc(CCO)c2C)c(N)n1 [Vitamin B1]
- Et transport efficiency [1]: 6.5
- Et ([1]; Fig.2 d, per analyte (cargo)): 6.5
- Ymax (%) maximal activity, transport of cargo [1]: 73%
- EC50 [1]: 16.6 µM

Compound: phalloidin [reference compound]
- Et [1]: 2.3
- Et transport efficiency [1]: 2.3 ± 0.3
- Ymax (%) maximal activity, transport of cargo [1]: 90 ± 10%
- EC50 [1]: 310 ± 70 µM

Compound: protamine
- Et transport efficiency [1]: 10.0
- Et ([1]; Fig.2 d, per analyte (cargo)): 10
- Ymax (%) maximal activity, transport of cargo [1]: 76%
- EC50 [1]: 2.4 µM

— publication PMC8942850, “Boron clusters as broadband membrane carriers” (Nature, 2022)
